Laboratory results from BindingDB's records for patent US8476306 (The Medicines, 2013).

biological target: Urokinase-type plasminogen activator (Homo sapiens, UniProt P00749); experiment: Enzyme Assay; conditions: 24 °C
Description: Inhibition constant of the compound against Plasminogen activator urokinase

In order of rising Ki:
1. N=C(N)c1ccc(CNC(=O)[C@H](CCCN=C(N)N)NC(=O)[C@@H](CO)NS(=O)(=O)Cc2ccccc2)cc1 [US8476306, 8.2]  8.9 nM
2. N=C(N)c1ccc(CNC(=O)[C@H](CCCCN)NC(=O)[C@@H](CO)NS(=O)(=O)Cc2ccccc2)cc1 [US8476306, 8.1]  24 nM
3. N=C(N)c1ccc(CNC(=O)CNC(=O)[C@@H](CO)NS(=O)(=O)Cc2ccncc2)cc1 [US8476306, 6.24]  100 nM
4. N=C(N)c1ccc(CNC(=O)CNC(=O)[C@@H](CO)NS(=O)(=O)Cc2ccc(CN)cc2)cc1 [US8476306, 6.11]  120 nM
